Values quoted from earlier work in US20160021884A1, “STABLE SOLUTIONS OF 1,2-BENZISOTHIAZOLIN-3-ONE” (TITAN CHEMICALS LIMITED, priority 2014, published 2016).

Settings: 5° C., 4 weeks

Stability of purely aqueous solution: stable at 5 °C for 4 weeks
Compound: O=c1[n-]sc2ccccc12.[Li+] [lithium salt of BIT]
